Experimental data: US7045661B2, “Crystalline forms of venlafaxine hydrochloride” (Ciba Specialty Chemicals Corporation, priority 2000, dated 2006)

Assay: Relative thermodynamic stability of crystalline forms
Format: physicochemical
Conditions: compared with the previous known Form C

For COc1ccc(C(CN(C)C)C2(O)CCCCC2)cc1.Cl (stereo not shown) [Form B, 1-[(2-dimethylamino)-1-(4-methoxyphenyl)ethyl]cyclohexanol hydrochloride], the thermodynamic stability was “thermodynamically more stable than the previous known Form C”.
